Experimental data from patent US20250151724A1, “Liquid Soil Treatments Containing Choline” (Harrell's, LLC, priority 2023, published 2025).
Where two headings read alike, the source gives them in different places.

Tested on: creeping bentgrass putting green
Experimental: The study was carried out on a creeping bentgrass putting green. There were two separate trials (Trial 1 and Trial 2). Trial 1 and Trial 2 were conducted side by side. Each trial consisted of 2 treatments with 4 replications. Plot size was 5×6 ft. Regular mowing and irrigation were performed. A randomized block design was used.
The treatments were as follows: • I. Choline Trial 1-Biweekly • 1. Fertilized Control • 2. Choline 0.5 oz./1,000 ft^2 every two weeks • II. Choline Trial 2-Monthly • 1. Fertilized Control • 2. Choline 0.5 oz./1,000 ft^2 every month
Between 0.125″ and 0.25″ of irrigation was applied 3-4 hours post application. All treatments received equal fertility (applied bi-weekly) with 28-8-18 with UMAXX® fertilizer (Harrell's, Lakeland, Florida) applied on the day following application of treatments.
The trials lasted for 15 weeks and a total of 7 treatment applications in the bi-weekly trial and 4 treatment applications in the monthly trial. The following measurements data were taken at the specified intervals throughout the trials: • a. Volumetric water content (VWC) was measured with a TDR350 moisture sensor (Turf-Tec Intentional, Tallahassee, FL) every 2 weeks. In addition, beginning on days 13, 34, and 69, irrigation was withheld for about 9 days to allow gradual decline of the soil water content, inducing significant decline in leaf color and turf quality. Volumetric water content was measured at day 0 (the day of initiation of irrigation withholding), day 3, day 6, and day 9. Irrigation was resumed after day 9 of the first and second dry down cycle. […] Three readings of VWC were collected from each plot and the average was used for statistical analysis. • b. Leaf color was rated based on a visual scale of 1 through 9, with 1 indicating brown color and 9 indicating dark green color. • c. Turf quality was rated based on a visual scale of 1 through 9, with 9 indicating the best quality and 6 indicating the minimum commercially acceptable quality.

[1] = 0.5 oz/1000 ft^2 biweekly, day 0
[2] = 0.5 oz/1000 ft^2 biweekly, day 14
[3] = 0.5 oz/1000 ft^2 biweekly, day 17
[4] = 0.5 oz/1000 ft^2 biweekly, day 20
[5] = 0.5 oz/1000 ft^2 biweekly, day 22
[6] = 0.5 oz/1000 ft^2 biweekly, day 29
[7] = 0.5 oz/1000 ft^2 biweekly, day 34
[8] = 0.5 oz/1000 ft^2 biweekly, day 38
[9] = 0.5 oz/1000 ft^2 biweekly, day 41
[10] = 0.5 oz/1000 ft^2 biweekly, day 43
[11] = 0.5 oz/1000 ft^2 biweekly, day 57
[12] = 0.5 oz/1000 ft^2 biweekly, day 71
[13] = 0.5 oz/1000 ft^2 biweekly, day 76
[14] = 0.5 oz/1000 ft^2 biweekly, day 78
[15] = 0.5 oz/1000 ft^2 biweekly, day 84
[16] = 0.5 oz/1000 ft^2 biweekly, day 98
[17] = 0.5 oz/1000 ft^2 monthly, day 0
[18] = 0.5 oz/1000 ft^2 monthly, day 14
[19] = 0.5 oz/1000 ft^2 monthly, day 17
[20] = 0.5 oz/1000 ft^2 monthly, day 20
[21] = 0.5 oz/1000 ft^2 monthly, day 22
[22] = 0.5 oz/1000 ft^2 monthly, day 29
[23] = 0.5 oz/1000 ft^2 monthly, day 34
[24] = 0.5 oz/1000 ft^2 monthly, day 38
[25] = 0.5 oz/1000 ft^2 monthly, day 41
[26] = 0.5 oz/1000 ft^2 monthly, day 43
[27] = 0.5 oz/1000 ft^2 monthly, day 57
[28] = 0.5 oz/1000 ft^2 monthly, day 71
[29] = 0.5 oz/1000 ft^2 monthly, day 76
[30] = 0.5 oz/1000 ft^2 monthly, day 78
[31] = 0.5 oz/1000 ft^2 monthly, day 84
[32] = 0.5 oz/1000 ft^2 monthly, day 98

C[N+](C)(C)CCO.[Cl-] [Choline, choline chloride]
Leaf color (1-9, 9 = dark green) [1]: 7.0a
Turf quality (1-9, 9 = best) [1]: 6.9a
Leaf color (1-9, 9 = dark green) [2]: 7.0a
Turf quality (1-9, 9 = best) [2]: 7.1a
Leaf color (1-9, 9 = dark green) [3]: 7.0a
Turf quality (1-9, 9 = best) [3]: 7.0a
Leaf color (1-9, 9 = dark green) [4]: 7.0a
Turf quality (1-9, 9 = best) [4]: 7.0a
Leaf color (1-9, 9 = dark green) [5]: 6.9a
Turf quality (1-9, 9 = best) [5]: 7.0a
Leaf color (1-9, 9 = dark green) [6]: 7.0a
Turf quality (1-9, 9 = best) [6]: 7.0a
Leaf color (1-9, 9 = dark green) [7]: 7.4a
Turf quality (1-9, 9 = best) [7]: 6.9a
Leaf color (1-9, 9 = dark green) [8]: 7.5a
Turf quality (1-9, 9 = best) [8]: 7.1a
Leaf color (1-9, 9 = dark green) [9]: 7.4a
Turf quality (1-9, 9 = best) [9]: 7.0a
Leaf color (1-9, 9 = dark green) [10]: 7.1a
Turf quality (1-9, 9 = best) [10]: 6.5a
Leaf color (1-9, 9 = dark green) [11]: 6.5a
Turf quality (1-9, 9 = best) [11]: 5.9a
Leaf color (1-9, 9 = dark green) [12]: 6.4a
Turf quality (1-9, 9 = best) [12]: 6.1a
Leaf color (1-9, 9 = dark green) [13]: 6.5a
Turf quality (1-9, 9 = best) [13]: 6.0a
Leaf color (1-9, 9 = dark green) [14]: 6.4a
Turf quality (1-9, 9 = best) [14]: 5.6a
Leaf color (1-9, 9 = dark green) [15]: 6.8a
Turf quality (1-9, 9 = best) [15]: 5.8a
Leaf color (1-9, 9 = dark green) [16]: 7.0a
Turf quality (1-9, 9 = best) [16]: 6.1a
Leaf color (1-9, 9 = dark green) [17]: 7.0a
Turf quality (1-9, 9 = best) [17]: 7.0a
Leaf color (1-9, 9 = dark green) [18]: 6.9a
Turf quality (1-9, 9 = best) [18]: 6.9a
Leaf color (1-9, 9 = dark green) [19]: 7.0a
Turf quality (1-9, 9 = best) [19]: 7.0a
Leaf color (1-9, 9 = dark green) [20]: 7.0a
Turf quality (1-9, 9 = best) [20]: 7.3a
Leaf color (1-9, 9 = dark green) [21]: 6.9a
Turf quality (1-9, 9 = best) [21]: 6.6a
Leaf color (1-9, 9 = dark green) [22]: 7.0a
Turf quality (1-9, 9 = best) [22]: 6.6a
Leaf color (1-9, 9 = dark green) [23]: 7.5a
Turf quality (1-9, 9 = best) [23]: 7.3a
Leaf color (1-9, 9 = dark green) [24]: 7.1a
Turf quality (1-9, 9 = best) [24]: 7.0a
Leaf color (1-9, 9 = dark green) [25]: 7.5a
Turf quality (1-9, 9 = best) [25]: 7.0a
Leaf color (1-9, 9 = dark green) [26]: 6.9a
Turf quality (1-9, 9 = best) [26]: 6.6a
Leaf color (1-9, 9 = dark green) [27]: 7.1a
Turf quality (1-9, 9 = best) [27]: 6.8a
Leaf color (1-9, 9 = dark green) [28]: 6.9a
Turf quality (1-9, 9 = best) [28]: 6.8a
Leaf color (1-9, 9 = dark green) [29]: 7.0a
Turf quality (1-9, 9 = best) [29]: 6.6a
Leaf color (1-9, 9 = dark green) [30]: 7.0a
Turf quality (1-9, 9 = best) [30]: 6.5a
Leaf color (1-9, 9 = dark green) [31]: 7.3a
Turf quality (1-9, 9 = best) [31]: 7.0a
Leaf color (1-9, 9 = dark green) [32]: 7.7a
Turf quality (1-9, 9 = best) [32]: 7.3a
